Reference: a melting point compilation (Tetko et al.; mined from patent text by program, amines drawn as free bases though some values may be those of a salt)
Residues, ends and D or L forms follow the SMILES beside them. *: point of attachment. For = O=C*

melting point | Compound
166 to 167 °C | COc1ccc(CCCC(=O)Nc2c(C)c(C)c3c(c2C)C(c2ccc(C)cc2)C(C)(C)O3)cc1 (configuration not stated)
108 to 110 °C | OC(CCN1CCC(c2ccc(F)cc2)CC1)c1ccc(Cl)cc1 (configuration not stated)
> 200 °C | CC1(C)COC(=O)C(C(=O)Nc2cccc(C(F)(F)F)c2)C1=O (configuration not stated)
382 to 384 °C | O=C(O)c1ccc2c(=O)n3c(nc2c1)C(=Cc1ccccc1)CC3
105 to 107 °C | COc1ccc(C(C)C)c(NC(=O)CN2CCN(CCCSc3nc4ccccc4o3)CC2)c1C(C)C
199 to 201 °C | COc1ccccc1N1CCN(c2nc3cccc4c3n2CCC4)CC1
237 °C | Cc1cc(OCc2ccc(-c3ccccc3-c3nnn[nH]3)cc2)c(C(=O)O)c(C)n1
70 to 72 °C | O=C(c1cc(C(F)(F)F)ccc1Cl)c1cc(C(F)(F)F)ccc1Cl
141 to 143 °C | Cc1cn(-c2ccc(N)cc2C(F)(F)F)cn1
122 to 124 °C | O=C(Nc1ccc(F)cc1)c1ccccc1C(c1ccc(O)cc1)c1ccc(O)cc1
149 to 151 °C | O=C(Nc1cc2ncc(CN3CCCC3)cc2cc1F)c1ccc(Br)cc1F
91 to 92 °C | Fc1cccc(COc2nnc(-c3ccc4c(c3)CCO4)o2)c1
142 °C | CC1CCCCN1c1ccc([N+](=O)[O-])cc1C(=O)c1ccc(Cl)cc1 (configuration not stated)
209 to 213 °C | CCOc1ccc(-n2c(-c3ccc(SC)cc3)nc(SC)c(C#N)c2=O)cc1
87 to 89 °C | Cc1c(SCc2ccco2)ccnc1CSc1nc2ccccc2n1CCN(C)C
196 °C | CN(C)c1cccc2c(S(=O)(=O)Nc3ccc([N+](=O)[O-])cn3)cccc12
152 to 155 °C | O=C(CCCCC(=O)NCC1Cc2c1ccc(OCc1ccccc1)c2OCc1ccccc1)NCCc1ccccc1 (configuration not stated)
124 to 125 °C | Cn1c(COc2ccc(C=O)cc2)nc2cccnc21
150 °C | O=C(NCc1ccc(Cl)c(Cl)c1)c1ccc2n1Cc1ccccc1N(C(=O)CSc1ccc(Br)cc1)C2

melting point | Compound
216 to 226 °C | O=C1c2ccccc2C(=O)C1c1cccc([N+](=O)[O-])c1
93 to 97 °C | CC(O)c1cccc(Oc2ncccc2OCCCc2ccncc2)c1 (configuration not stated)
189 to 191 °C | Nc1cccc(-c2ccc(CCN3CCN(c4cccc(C(F)(F)F)c4)CC3)cc2)n1
153 to 154 °C | O=Cc1cn(-c2ccccc2)nc1OCc1ccccc1
226 to 228 °C | Cc1cc(Cl)nn2c(-c3ccnc4[nH]ccc34)c(-c3ccc(F)cc3)nc12
52.7 °C | CCCc1cnc(-c2ccc(F)cc2)nc1
229 to 234 °C | COc1cc(OC)nc(OC(C(=O)O)C(C)(c2ccccc2)c2ccccc2)n1 (configuration not stated)
118 to 122 °C | O=c1[nH]c2cscc2c(=O)n1CCCCCN1CCC(=C(c2ccc(F)cc2)c2ccc(F)cc2)CC1
173 to 175 °C | Cc1ccc(Cn2c(-c3ccccc3)nc(Cl)c2CO)cc1
210 °C | O=C1CCC(c2ccccc2)(c2ccccc2)[C@@H]2CN(C(=O)Cc3ccc(F)cc3)C[C@H]12 (racemic)
201 to 204 °C | Cc1cccc(-c2cn(C)cc(-c3ccc(Br)cc3)c2=O)c1
186 to 188 °C | COc1ccc2c3c(c(=O)oc2c1)CN(Cc1ccnc2ccccc12)CC3
172 to 173 °C | Cn1c(-c2ccccc2)c(C=O)c2ccc(Cl)cc2c1=O
93.6 to 94.9 °C | CCOCCOc1ccc(-c2nc(=O)c3ccccc3s2)cn1
119 to 123 °C | COc1cc(C(=O)N2Cc3ccc(C(=O)N(C)CC(O)CO)n3Cc3ccccc32)ccc1-c1ccccc1C(F)(F)F (configuration not stated)
77 to 79 °C | O=C1NC(=O)C(c2c3n(c4ccccc24)CCC(CO)C3)=C1c1cccc(C(F)(F)F)c1 (configuration not stated)
114 to 116 °C | CC(C)(C)OC(=O)N1CCc2c(n(CCCc3ccccc3)c3ccc(Cl)c(Cl)c23)CC1
100 to 101 °C | CCOC(=O)c1c2ccc(Cl)cc2c(-c2ccccc2)n1CCCC(C)C1OCCO1 (configuration not stated)

Further lines, the molecule ahead of its results:

Compound | melting point
CC(C)(C)OC(=O)NC(=N)NC(=O)c1cccc(P(c2ccccc2)c2ccccc2)c1 | 79 to 82 °C
CCCCc1ccc(N)nc1 | 30 to 33 °C
Cc1ncoc1C(=O)c1ccoc1 | 82 to 83.5 °C
CC(Cc1cc(C(C)(C)C)c(O)c(C(C)(C)C)c1)C(=O)Oc1ccc(C(=O)c2cc(C(C)(C)C)c(O)c(C(C)(C)C)c2)c(O)c1 (configuration not stated) | 163 to 165 °C
CC(C)CC(=O)C1CCC2C3CN(C(C)(C)C)C4=CC(=O)CCC4(C)C3CCC12CC(=O)O (configuration not stated) | 169 to 171 °C
COc1cccc(C(=O)Nc2ccc3c(c2)CCCC3=O)c1 | 142 to 143 °C
C=CCOc1nc(Nc2ccc(OC)nc2)nc2c1ncn2CCCC | 147 to 149 °C
CCOC(=O)C1=C(N)NC(N)=C(C(=O)OCC)C1c1ccccc1-c1ccccc1 | 215 °C
O=C(O)c1ccc(=O)n(CCNC(=O)c2ccccn2)c1 | 266 to 268 °C
CCOC(=O)c1ccc(C#C[Si](C)(C)C)nc1 | 55 °C
CSc1nc2cc(Cl)c(Cl)cc2n1C | 110 °C
ON=C(Cl)c1ccc(Cl)c(Cl)c1 | 104 to 106 °C
CCC1(C)C(=O)c2c(cc(OC)c(Cl)c2Cl)C1c1ccccc1 (configuration not stated) | 132 °C
Cc1cc(C)nc(S(=O)(=O)c2ccccc2)c1 | 106 to 107 °C
COC(=O)C(Cc1ccccc1)NC(=O)C(CC(=O)O)NC=O (stereo not drawn) (For-Asp-Phe-OMe; configuration not given here) | 124 °C
O=C(O)c1ccc(OC(F)(F)F)c([N+](=O)[O-])c1 | 137 to 139 °C
COc1ccc(C(=O)Nc2nc3ccc(N(C)C)cc3c(NCc3ccco3)c2C#N)cc1 | 195 °C
CCOC(=O)CCn1cnc2c(=O)[nH]cnc21 | 197 to 200 °C
COc1cc(-c2ccc(N)cn2)cc(OC)c1OC | 154 to 156 °C
CC(C)C(C)(NC(=O)c1nc2ccc(OC(F)F)cc2cc1C(=O)O)C(N)=O (configuration not stated) | 194 to 196 °C
CCCCCCCCCCCCn1nnc(CCC(=O)OC)n1 | 39 to 42 °C
COC(=O)c1cnc(COC(=O)C(C)(C)Oc2ccc(Cl)cc2)s1 | 80 °C

Compound | melting point
CC(=O)OCC1OC(n2cc(I)c(=O)[nH]c2=O)C(OC(C)=O)C1OC(C)=O (configuration not stated) | 175 to 179 °C
Cc1nccc(N2CCN(C(=O)N3CCN(C(=O)OC(C)(C)C)CC3)CC2)n1 | 212 to 213 °C
CCc1cn(C2CC(F)C(CO)O2)c(=O)[nH]c1=S (configuration not stated) | 139 to 140 °C
O=[N+]([O-])c1nccn1C1CCCCO1 (configuration not stated) | 50 °C
Cn1c(=O)c(S(C)=O)c(O)c2ccccc21 (configuration not stated) | 197 to 200 °C
CC(=O)N[C@H]1C=C[C@@H](CO)C1 | 77 to 80 °C
COCC1CCCN1S(=O)(=O)c1ccc2c(c1)C1(OCCCO1)C(=O)N2 (configuration not stated) | 127 to 128 °C
Oc1cccc2csnc12 | 99 to 100 °C
O=C(O)C1=COc2c(C(=O)c3cccs3)cc(Cl)c(Cl)c2O1 | 233 to 236 °C
CCS(=O)(=O)Nc1ccc([N+](=O)[O-])cc1OC1CCCCC1 | 94 to 95 °C
Nc1c(Cl)cc(C(O)CNCCCCOCCSCCc2ccccc2)cc1Cl (configuration not stated) | 74 to 77 °C
CCCCCN1Cc2cccc(S(N)(=O)=O)c2S1(=O)=O | 156 to 160 °C
CCCc1cc(Cl)c2oc(Cc3ccc(OC)cc3)c(C)c2c1OC(=O)OCC | 99 to 100 °C
CC(=O)Nc1c(C#N)ccc(C#N)c1[N+](=O)[O-] | 232 to 233 °C
CC1CC(=NNc2ccccc2)c2ncc(C(=O)O)c(=O)n2C1 (configuration not stated) | 255 to 256 °C
COc1ccc2[nH]cc(CCCN(C3CCC3)C3COc4c(F)ccc(C(N)=O)c4C3)c2c1 (configuration not stated) | 151 to 158 °C
N#CC(N)=C(N)Sc1ccc(Cl)cc1 | 107 to 108 °C
CC1=NCCN1c1cnc2[nH]cc(C(=O)C(C)(C)C)c2n1 | 235 to 236 °C
CCCCCC(=O)C=CC1=C(CCC(=O)O)C(=O)CC1O (configuration not stated) | 57 °C
CNc1ccc(C23CC2C(=O)N(C)C3=O)cc1 (configuration not stated) | 128 to 129 °C
CCCC(O)(C(=O)Nc1cc(Br)nc(OC)c1)C(C)C (configuration not stated) | 116 °C
COC(=O)c1cc(N)cc(-n2cccc2)c1 | 116 to 118 °C

Compound | melting point
CCC1(C)OC(c2ccc(S(N)(=O)=O)cc2)=C(c2ccsc2)C1=O (configuration not stated) | 120 to 121 °C
OCCCc1cc(Cl)cc2nc(Cc3ccccc3Cl)oc12 | 87 to 89 °C
O=[N+]([O-])c1cc(C(F)(F)F)c(Cl)cc1NCP(=O)(O)O | 207 °C
CC(C)(C)OC(=O)CC(=O)c1ccc(C#N)cc1 | 82 to 83 °C
O=C(c1c(C2CC2)nn2ccccc12)C1CC1 | 102 to 104 °C
COc1ccc(NN=C(Sc2cc(Cl)cc(Cl)c2)C(C)=O)cc1 | 168 to 170 °C
COc1cc(Cl)c(-n2nnc3c(-c4ccccc4C)nc(C)nc32)c(OC)c1 | 173 to 174 °C
COC(=O)c1ccc(N2CC(CNC(C)=S)OC2=O)cc1F (configuration not stated) | 152 to 154 °C
COc1ccc(OC)c2c(C=O)c3ccccc3c(C=O)c12 | 208 to 212 °C
Cc1nc(C)c(Cl)c(NCc2ccc(OCCn3c([N+](=O)[O-])cnc3C)c(Cl)n2)n1 | 206 to 208 °C
CCNC(=O)c1c([Si](C)(C)C)ccc(C(C)=O)c1Cl | 78 to 80 °C
CCCCc1ncc(/C=C(\Cc2cccs2)C(N)=O)n1Cc1ccccc1[N+](=O)[O-] | 183 to 185 °C
C=C(Cc1ccccc1)C(=O)O | 61 to 62 °C
CSc1cc(C)c(O)c(C)c1SC | 98 to 100 °C
N#Cc1ccc(CC=O)cc1 | 63 to 65 °C
CS(=O)(=O)Nc1cc2occc(=O)c2cc1Oc1ccccc1C(=O)O | 243 to 246 °C
CCCn1c(=O)[nH]c2ccc(C(=O)c3nc(NS(C)(=O)=O)c4ccccn34)cc2c1=O | 334 °C
CCc1ccc(CCOc2ccc(NC(=O)N(C)OC)cc2)nc1 | 90.5 to 92 °C
COc1cc(C=Cc2cc(=O)n3cccc(C)c3n2)cc(OC)c1OC | 208 to 210 °C
CC(=O)OC1C(c2ccccc2)=C(c2ccc(S(C)(=O)=O)cc2)C1(C)C (configuration not stated) | 60 to 61 °C
Cc1ccc2c(c1)CC(=O)N2 | 168 °C
